Results published in patent publication US20240335431A1, “1-H-PYRROLO[2,3-c]PYRIDINE COMPOUNDS” (Acerta Pharma B.V., priority 2023, published 2024).
Read-outs that look alike come from different tables or passages of the source.

Legend:
[1] = tested on: MOLM-13 cells; experiment: Proliferation assay, MOLM-13 (CellTiter-Glo, 7 days); type: cell-based, human
Procedure, shortened: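 Cells were seeded at line-specific low densities for linear growth, exposed to 3.16-fold serial compound dilutions at 0.1% DMSO, and incubated 7 days at 37 °C, 5% CO2. Viability was read by CellTiter-Glo 2.0 luminescence; IC50 came from one-site fits of % inhibition, normalized between DMSO-treated cells (100%) and a day-0 plate (0%).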

[2] = Human hepatocyte intrinsic clearance assay; type: in vitro ADME; details: human hepatocytes
Procedure, shortened: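 Pooled 10-donor cryopreserved human hepatocytes in suspension (0.25×10^6 cells in 0.25 mL) incubated with test compound at […], 37° C. Samples taken 0.5–120 min and quenched in acetonitrile, parent remaining measured by LC-MS/MS. CLint ([…]) derived from slope of ln % remaining vs time.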

| IC50 ([1]; Homo sapiens, MOLM-13, 168 h) [nM] | HH CLint [2] [μl/min/1E6] | IC50 [1] [nM] | SMILES |
| --- | --- | --- | --- |
| 50 | 3.6 | – | CC(C)N(C(=O)c1cc(F)ccc1-n1cc(C(=O)C2CCN(C(=O)[C@H]3NC[C@@H]4CC[C@@H]43)CC2)c2ccncc21)C(C)C (relative stereo) [Example 25, rel-2-(3-(1-((1R,2R,5S)-3-Azabicyclo[3.2.0]heptane-2-carbonyl)piperidine-4-carbonyl)-1H-pyrrolo[2,3-c]pyridin-1-yl)-5-fluoro-N,N-diisopropylbenzamide] |
| – | 1.9 | 31 | Cc1c(C(=O)C2CCN(C(=O)[C@H]3NC[C@@H]4C[C@@H]43)CC2)c2ccncc2n1-c1ccc(F)cc1C(=O)N(CC(F)(F)F)C(C)C (single isomer, unassigned) [Example 51-2] |
| – | 3.3 | 15 | Cc1c(C(=O)[C@@H]2CCN(C(=O)[C@H]3NC[C@@H]4C[C@@H]43)[C@@H](C)C2)c2ccncc2n1-c1ccc(F)cc1C(=O)N(CC(F)(F)F)C(C)C (single isomer, unassigned) [Example 53-3, 2-(3-((2R*,4S*)-1-((1S,2S,5R)-3-Azabicyclo[3.1.0]hexane-2-carbonyl)-2-methylpiperidine-4-carbonyl)-2-methyl-1H-pyrrolo[2,3-c]pyridin-1-yl)-5-fluoro-N-isopropyl-N-(2,2,2-trifluoroethyl)benzamide] |
| – | <1.0 | 27 | CCN(C(=O)c1cc(F)ccc1-n1c(C)c(C(=O)C2CCN(C(=O)[C@H]3NC[C@@H]4C[C@@H]43)CC2)c2ccncc21)C(C)C (single isomer, unassigned) [Example 48-2] |
| 30 | <1.7 | – | CC(C)N(C(=O)c1cc(F)ccc1-n1cc(C(=O)C2CCN(C(=O)[C@H]3N[C@H]4C[C@@H]3[C@@H](F)C4)CC2)c2ccncc21)C(C)C [Example 22, 5-Fluoro-2-(3-(1-((1S,3S,4S,5S)-5-fluoro-2-azabicyclo[2.2.1]heptane-3-carbonyl)piperidine-4-carbonyl)-1H-pyrrolo[2,3-c]pyridin-1-yl)-N,N-diisopropylbenzamide] |
| 98 | 2.9 | – | CC(C)N(C(=O)c1cc(F)ccc1-n1cc(C(=O)C2CN(C(=O)[C@H]3N[C@@H]4CC[C@H]3C4)C2)c2ccnc(F)c21)C(C)C [Example 15, 2-(3-(1-((1R,3S,4S)-2-Azabicyclo[2.2.1]heptane-3-carbonyl)azetidine-3-carbonyl)-7-fluoro-1H-pyrrolo[2,3-c]pyridin-1-yl)-5-fluoro-N,N-diisopropylbenzamide] |
| 38 | <1.0 | – | CCN(C(=O)c1cc(F)ccc1-n1cc(C(=O)C2CCN(C(=O)[C@H]3N[C@@H]4CC[C@H]3C4)CC2)c2ccncc21)C(C)C [Example 31, 2-(3-(1-((1R,3S,4S)-2-Azabicyclo[2.2.1]heptane-3-carbonyl)piperidine-4-carbonyl)-1H-pyrrolo[2,3-c]pyridin-1-yl)-N-ethyl-5-fluoro-N-isopropylbenzamide] |
| 39 | <1.0 | – | CCN(C(=O)c1cc(F)ccc1-n1cc(C(=O)C2CCN(C(=O)[C@H]3NC[C@@H]4C[C@@H]43)CC2)c2ccncc21)C(C)C [Example 28, 2-(3-(1-((1S,2S,5R)-3-Azabicyclo[3.1.0]hexane-2-carbonyl)piperidine-4-carbonyl)-1H-pyrrolo[2,3-c]pyridin-1-yl)-N-ethyl-5-fluoro-N-isopropylbenzamide] |
| 102 | 3.9 | – | CC(C)c1ncsc1-c1cc(F)ccc1-n1cc(C(=O)C2CN(C(=O)[C@H]3N[C@@H]4CC[C@H]3C4)C2)c2ccncc21.O=CO [Example 12, (1-((1R,3S,4S)-2-Azabicyclo[2.2.1]heptane-3-carbonyl)azetidin-3-yl)(1-(4-fluoro-2-(4-isopropylthiazol-5-yl)phenyl)-1H-pyrrolo[2,3-c]pyridin-3-yl)methanone 1·formic acid] |
| 74 | <1.0 | – | CC(C)N(C(=O)c1cc(F)ccc1-n1cc(C(=O)C2CN(C(=O)[C@H]3N[C@@H]4CC[C@H]3C4)C2)c2ccncc21)C(C)C [Example 5, 2-(3-(1-((1R,3S,4S)-2-Azabicyclo[2.2.1]heptane-3-carbonyl)azetidine-3-carbonyl)-1H-pyrrolo[2,3-c]pyridin-1-yl)-5-fluoro-N,N-diisopropylbenzamide] |
| 68 | <1.0 | – | CC(C)c1ncncc1-c1cc(F)ccc1-n1cc(C(=O)C2CCN(C(=O)[C@H]3N[C@@H]4CC[C@H]3C4)CC2)c2ccncc21 [Example 37, (1-((1R,3S,4S)-2-Azabicyclo[2.2.1]heptane-3-carbonyl)piperidin-4-yl)(1-(4-fluoro-2-(4-isopropylpyrimidin-5-yl)phenyl)-1H-pyrrolo[2,3-c]pyridin-3-yl)methanone] |
| – | 2.1 | 42 | CCN(C(=O)c1cc(F)ccc1-n1c(C)c(C(=O)C2CCN(C(=O)[C@H]3NC[C@@H]4C[C@@H]43)CC2)c2ccncc21)C(C)C [Example 47, 2-(3-(1-((1S,2S,5R)-3-Azabicyclo[3.1.0]hexane-2-carbonyl)piperidine-4-carbonyl)-2-methyl-1H-pyrrolo[2,3-c]pyridin-1-yl)-N-ethyl-5-fluoro-N-isopropylbenzamide] |
| 27 | <1.0 | – | CC(C)c1ncccc1-c1cc(F)ccc1-n1cc(C(=O)C2CCN(C(=O)[C@H]3N[C@@H]4CC[C@H]3C4)CC2)c2ccncc21 [Example 38, (1-((1R,3S,4S)-2-Azabicyclo[2.2.1]heptane-3-carbonyl)piperidin-4-yl)(1-(4-fluoro-2-(2-isopropylpyridin-3-yl)phenyl)-1H-pyrrolo[2,3-c]pyridin-3-yl)methanone] |
| 40 | 2.5 | – | CC(C)c1ncsc1-c1cc(F)ccc1-n1cc(C(=O)C2CCN(C(=O)[C@H]3N[C@@H]4CC[C@H]3C4)CC2)c2ccncc21.O=CO [Example 42, (1-((1R,3S,4S)-2-Azabicyclo[2.2.1]heptane-3-carbonyl)piperidin-4-yl)(1-(4-fluoro-2-(4-isopropylthiazol-5-yl)phenyl)-1H-pyrrolo[2,3-c]pyridin-3-yl)methanone 1·formic acid] |
| 49 | 6.4 | – | Cc1c(C(=O)C2CCN(C(=O)[C@H]3NC[C@@H]4C[C@@H]43)CC2)c2ccncc2n1-c1ccc(F)cc1-c1cnccc1C(C)C [Example 54, (1-((1S,2S,5R)-3-Azabicyclo[3.1.0]hexane-2-carbonyl)piperidin-4-yl)(1-(4-fluoro-2-(4-isopropylpyridin-3-yl)phenyl)-2-methyl-1H-pyrrolo[2,3-c]pyridin-3-yl)methanone] |
| 34 | 2.0 | – | CC(C)N(C(=O)c1cc(F)ccc1-n1cc(C(=O)C2CCN(C(=O)[C@H]3NC[C@@H]4CCC[C@@H]43)CC2)c2ccncc21)C(C)C [Example 21, 5-Fluoro-N,N-diisopropyl-2-(3-(1-((1S,3αR,6αS)-octahydrocyclopenta[c]pyrrole-1-carbonyl)piperidine-4-carbonyl)-1H-pyrrolo[2,3-c]pyridin-1-yl)benzamide] |
| 63 | 3.2 | – | CC(C)N(C(=O)c1cc(F)ccc1-n1cc(C(=O)C2CN(C(=O)[C@H]3N[C@H]4C[C@@H]3[C@@H](F)C4)C2)c2ccncc21)C(C)C [Example 7, 5-Fluoro-2-(3-(1-((1S,3S,4S,5S)-5-fluoro-2-azabicyclo[2.2.1]heptane-3-carbonyl)azetidine-3-carbonyl)-1H-pyrrolo[2,3-c]pyridin-1-yl)-N,N-diisopropylbenzamide] |
| 98 | <1.0 | – | CC(C)N(C(=O)c1cc(F)ccc1-n1cc(C(=O)[C@@H]2CCN(C(=O)[C@H]3N[C@@H]4CC[C@H]3C4)C2)c2ccncc21)C(C)C [Example 3, 2-(3-((R)-1-((1R,3S,4S)-2-Azabicyclo[2.2.1]heptane-3-carbonyl)pyrrolidine-3-carbonyl)-1H-pyrrolo[2,3-c]pyridin-1-yl)-5-fluoro-N,N-diisopropylbenzamide] |
| 60 | <1.0 | – | CC(C)n1nccc1-c1cc(F)ccc1-n1cc(C(=O)C2CCN(C(=O)[C@H]3N[C@@H]4CC[C@H]3C4)CC2)c2ccncc21 [Example 36, (1-((1R,3S,4S)-2-Azabicyclo[2.2.1]heptane-3-carbonyl)piperidin-4-yl)(1-(4-fluoro-2-(1-isopropyl-1H-pyrazol-5-yl)phenyl)-1H-pyrrolo[2,3-c]pyridin-3-yl)methanone] |
| – | 3.2 | 93 | Cc1c(C(=O)C2CCN(C(=O)[C@H]3NC[C@@H]4C[C@@H]43)CC2)c2ccncc2n1-c1ccc(F)cc1C(=O)N(C(C)C)[C@H](C)C(F)(F)F (single isomer, unassigned) [Example 57-1] |
| – | <1.0 | 1250 | CCN(C(=O)c1cc(F)ccc1-n1c(C)c(C(=O)C2CCN(C(=O)[C@H]3NC[C@@H]4C[C@@H]43)CC2)c2ccncc21)C(C)C (single isomer, unassigned) [Example 48-1] |

| SMILES | IC50 ([1]; Homo sapiens, MOLM-13, 168 h) [nM] | HH CLint [2] [μl/min/1E6] | IC50 [1] [nM] |
| --- | --- | --- | --- |
| Cc1c(C(=O)C2CCN(C(=O)[C@@H]3CCC(C)(C)N3)CC2)c2ccncc2n1-c1ccc(F)cc1C(=O)N(C(C)C)C(C)C (single isomer, unassigned) [Example 56-1] | – | 6.9 | 1930 |
| Cc1c(C(=O)C2CCN(C(=O)[C@@H]3CCC4(CC4)N3)CC2)c2ccncc2n1-c1ccc(F)cc1C(=O)N1[C@H](C)COC[C@H]1C (single isomer, unassigned) [Example 58-2] | – | 1.9 | 37 |
